Assay results from patent publication US20020147318A1, “Preparation method of water soluble carboxylmethyl chitosan having anti-lipid peroxidation ability” (priority 2001, published 2002).
Values after ≈ are worked out from the molar mass of the structure shown.

System: lipid peroxidation in rat liver microsomes
Assay: Anti-lipid peroxidation in rat liver microsomes (NADPH-induced, MDA-TBA absorbance at 535 nm)
Type: biochemical
Description: In the present, the rat microsomes is used to provide lipid source. The product of lipid peroxidation induced by NADPH with heat treatment (deconstructing microsome enzyme) is referred as MDA (malondialdehyde). The MDA is added with TBA (thiobarbituric acid) to form MDA-TBA compound with pink fluorescence. The MDA-TBA compound has absorption spectrum at 535 nm (or 532 nm) wavelength. The content of MDA can be manifested by the absorption degree of light at those wavelengths. Therefore, the degree of lipid peroxidation can also be known. If the content of MDA is decreased after addition of water soluble CM chitosan, the reduction of MDA can be attributed to the water soluble CM chitosan. It means that the water soluble CM chitosan has the ability of anti-lipid peroxidation. In the present invention, the anti-lipid peroxidation ability of the water soluble CM chitosan is compared with that of the Trolex (water soluble vitamin E).

- effect on lipid peroxidation in rat liver microsomes (addition of the substance to rat liver microsomes): can suppress the lipid peroxidation
- IC50 (the concentration required to suppress 50% lipid peroxidation) (rat liver microsomes, average over at least three data): 4.96 µg/mL (≈ 19.8 µM)
SMILES: Cc1c(C)c2c(c(C)c1O)CCC(C)(C(=O)O)O2 (stereo not drawn) [Trolex]
- MDA, the product of lipid peroxidation (as the added amount of the substance is increased): monotonically decreased
